Measurements: paper PMC10689700, “Kaemtakols A–D, highly oxidized pimarane diterpenoids with potent anti-inflammatory activity from Kaempferia takensis” (Natural Products and Bioprospecting, 2023)

What was measured:
[1] = system: NO production in RAW 264.7 macrophage cells; experiment: Inhibition of LPS-induced NO production in RAW 264.7 macrophage cells (Griess reaction); type: cell-based, murine; details: Mus musculus; for IC50: RAW264.7, LPS-triggered RAW 264.7 macrophage cells, read-out: IC50 of inhibiting nitric oxide production; for EC50: RAW264.7 cells, LPS 0.25 μg/mL, 24 h, read-out: EC50, Nitric oxide (LPS-induced NO production)
Description: (§1) Inhibition of NO production in LPS-activated murine macrophages (RAW 264.7 cells) The inhibitory assay followed the methods described previously with some modifications. RAW 264.7 cells were seeded at 3 × 10^4 cells/well in a 96-well flat bottom plate and cultured in DMEM high glucose supplemented with 10% FBS, 1% penicillin–streptomycin, and 1% HEPES. The plates were initially incubated at 37 °C for 24 h under 5% CO2 atmosphere. Thereafter, LPS (0.25 μg/mL) in the absence or presence of different concentrations of kaemtakols (100, 10, 1, 0.1, 0.01, and 0.001 μg/mL) were introduced into the culture plate and then incubated further for 24 h under the same condition. Aminoguanidine hydrochloride (iNOS inhibitor) was also added as a positive control. The nitrite accumulation in the media was determined by the Griess reaction. The 75 μL of each culture supernatant was mixed with an equivalent amount of Griess reagent and the resulting mixture was incubated at room temperature for additional 10 min. Then, the absorbance at 546 nm was measured using a multimode microplate reader (ENVISION). The cytotoxicity of kaemtakols against RAW 264.7 was determined by a standard MTT assay.

NF-κB in HaCaT cells = experiment: Inhibition of cytokine-induced NF-κB nuclear translocation in HaCaT human skin cells (high-content imaging); type: cell-based; details: cytokine cocktail TNF-α, IL-1β, IL-6, read-out: EC50, HaCaT cell (NF-κB production by cytokine induced inflammation)
Description: Assessment of inhibitory effects on NF-κB nuclear translocation in human skin HaCaT cells
The assay followed the methods described previously with some modifications. Human skin cells (HaCaT cells) were seeded at 5 × 10^4 cells/well in a 96-well black flat-bottom plate, using DMEM (Dulbecco’s Modified Eagle Medium) high glucose supplemented with 10% FBS and 1% penicillin–streptomycin. The plates were then incubated at 37 °C for 24 h under 5% CO2 atmosphere. Following the initial incubation, a range of concentrations (100, 50, 25, 12.5, 6.25, 3.125 μM) of kaemtakols were introduced to the cells, and a subsequent 1-h incubation at 37 °C with 5% CO2 was carried out. Afterward, a cytokine cocktail comprising TNF-α (10 ng/mL), IL-1β (10 ng/mL), and IL-6 (10 ng/mL), along with the same concentration range of kaemtakols, was introduced to the culture plates and incubated at 37 °C with 5% CO2 for additional 30 min. Thereafter, the treated cells were fixed with 100% methanol at -20 °C for 10 min. The fixed cells underwent triple washes with DPBS before being exposed to a blocking solution (3% BSA) at room temperature for 60 min. Subsequently, a primary antibody (anti-NF-κB), a Rabbit monoclonal antibody, was introduced into the culture plate at a 1:500 ratio in DPBS and incubated at 4 °C overnight. Afterward, the culture plate was washed with DPBS three times. A secondary antibody (Alexa Fluor 488-conjugated goat anti-rabbit IgG) at a 1:500 ratio in DPBS was added to the culture plate and incubated for 1 h at room temperature in the dark. Simultaneously, Hoechst (at a 1:1,000 ratio in DPBS) was also added to the culture plate. The translocation of NF-κB in cells treated with the cytokine cocktail and kaemtakols was subsequently detected using a high-content imaging system (Operetta). The cell viability was determined by Hoechst DNA staining (Operetta).

[2] = Cytotoxicity against RAW 264.7 cells (MTT assay); type: cell-based, murine; details: mouse; for viability at 24 h, 10 µM: at 10 μM, read-out: % Cell viability At 10 μM; for viability at 24 h, 100 µM: at 100 μM, read-out: % Cell viability At 100 μM
Description: as §1, with “The” for “Inhibition of NO production in LPS-activated murine macrophages (RAW 264.7 cells) The”

Row | Compound | IC50 [1] [µM] | EC50 [1] [µM] | EC50 (NF-κB in HaCaT cells) [µM] | viability at 24 h, 10 µM [2] [%] | viability at 24 h, 100 µM [2] [%]
1 | C=CC1(C)C=C2C3(O)OCC4(C(OC(C)=O)CCC(C)(C)C4C3OC(C)=O)C2(O)CC1 (stereo not drawn) [Compound 1, 7α,9α-dihydroxy-1α,6β-diacetoxy-7β,20-epoxyisopimara-8(14),15-diene] | 104 | 104 | > 100 | 95.7 | 68.5
2 | C=C[C@]1(C)C=C2[C@](O)(CC1)[C@]13CO[C@@]2(O)[C@@H](OC(C)=O)[C@H]1C(C)(C)CC[C@@H]3O [Compound 2, 1α,7α,9α-trihydroxy-6β-acetoxy-7β,20-epoxyisopimara-8(14),15-diene] | 0.69 | 0.69 | > 100 | 83 | 20.8
3 | C=C[C@]1(C)C=C2[C@@H](OC(C)=O)[C@@]3(O)OC[C@]4([C@@H]3C(C)(C)CC[C@@H]4O)[C@@]2(O)CC1 [Compound 3, 1α,6α,9α-trihydroxy-7β-acetoxy-6β,20-epoxyisopimara-8(14),15-diene] | – | 29.9 | > 100 | 92.5 | 97.2
4 | CC(=O)OC1CCC(C)(C)C(C=O)C12COC(=O)C1=C2C2CC3C1C3(C)C2 (stereo not drawn) [Compound 4, 1α-acetoxy-13β-methyl-6,7-seco-7,20-olide-8,9-tricyclo[3.2.1.0^2,7]octane-isopimara-8-en-6-al] | – | 18.8 | > 100 | 89.7 | 1.55
